Laboratory results from PubChem BioAssay (NCI).
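Five compound concentrations were applied to cells in 96-well plates for 48 hours; endpoints were derived by simple linear interpolation of the resulting dose-response curve. The concentration for full growth arrest is given as TGI.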 Where a SMILES comes first, the peptide text is derived from it. The star is where a group is joined. Boc = CC(C)(C)OC(=O)*; Bn = c1ccc(C*)cc1

Assays:
Assay in all cases: NCI anticancer screen, dose series, 48 h
[1] = system: CCRF-CEM leukemia
[2] = system: HCT-116 colon
[3] = system: HOP-62 NSCLC
[4] = system: HOP-92 NSCLC
[5] = system: MDA-MB-435
[6] = system: MDA-N
[7] = system: MOLT-4 leukemia
[8] = system: NCI/ADR-RES ovarian
[9] = system: OVCAR-5 ovarian
[10] = system: UACC-257 melanoma
[11] = system: A498 renal

SMILES	TGI [1] [µM]	TGI [2] [µM]	TGI [3] [µM]	TGI [4] [µM]	TGI [5] [µM]	TGI [6] [µM]	TGI [7] [µM]	TGI [8] [µM]	TGI [9] [µM]	TGI [10] [µM]	TGI [11] [µM]
CC1(C)/C(=N\NC(N)=O)C2CCC1C2 (stereo unspecified)	> 100	> 100	> 100	> 100	> 100	> 100	> 100	> 100	> 100	> 100	–
COC(=O)c1c(O)ccc2c1c1c(n2Cc2cc(OC)cc(OC)c2)C(=O)c2ccccc2C1	67.5	> 100	> 100	–	61.7	> 100	> 100	63.1	56.1	> 100	> 100
COc1cccc(CCNC(=O)Cc2ccccc2CCO)c1	> 100	> 100	> 100	> 100	> 100	–	> 100	> 100	> 100	> 100	> 100
Cc1ccc(-c2c(C#N)c(-c3ccc(C)cc3)n(NS(=O)(=O)c3ccccc3)c(=O)c2C#N)cc1	77.7	> 100	> 100	> 100	> 100	–	64.7	> 100	> 100	> 100	> 100
O=[N+]([O-])C[C@@]12O[C@]3(O)C4C5CC(C6C5C3C61)C42 (stereo partly specified)	> 100	> 100	> 100	> 100	> 100	–	> 100	> 100	> 100	> 100	> 100
O=C(N/N=C(\c1ccccc1)c1ccccn1)NC1CCCCC1	> 100	> 100	> 100	> 100	> 100	> 100	> 100	–	> 100	> 100	–
COc1cc2c(cc1OC)C(CC1=C(c3ccccc3)CN3CCc4cc(OC)c(OC)cc4C3C1)NCC2 (stereo unspecified)	37.6	–	–	–	–	–	29.5	–	35.4	34.3	33.2
CO/N=C(\C(=O)OC(=NC1CCCCC1)NC1CCCCC1)c1csc(NC(c2ccccc2)(c2ccccc2)c2ccccc2)n1	> 10	> 10	> 10	> 10	–	> 10	> 10	> 10	> 10	> 10	> 10
N#CC1C(=S)NC(c2ccccc2)=CC12CCCCC2 (stereo unspecified)	56.4	62.1	–	55.3	40.3	> 100	53.2	> 100	> 100	> 100	50.3
O=C(O)CCCc1nc2c(n1Cc1ccccc1)C(=O)c1ccccc1C2=O	43.8	> 100	–	> 100	–	67.1	> 100	> 100	> 100	80.1	> 100
CCOC(=O)Nc1[nH]cc(-c2ccccc2)c1C#N	> 100	> 100	> 100	–	> 100	> 100	> 100	> 100	> 100	–	> 100
Cc1ccc(/C=N/Nc2cc(C)c3cccc(C)c3n2)s1	> 100	12.4	25.7	59.4	37.2	25.1	47.7	22.5	28.2	58.9	–
CC(=O)c1ccccc1NP(=O)(c1ccccc1)c1ccccc1	> 100	> 100	> 100	–	> 100	> 100	> 100	> 100	> 100	> 100	> 100
O=C1C2SC34c5c2c2ccccc2n5CCC3CCCN14 (stereo unspecified)	–	> 100	> 100	> 100	> 100	> 100	> 100	> 100	> 100	95.5	> 100
COC(=O)/C=C(\C(=O)OC)C1C(=O)Oc2c(C)c(=O)c3ccccc3n21 (stereo unspecified)	> 100	> 100	> 100	–	> 100	> 100	> 100	> 100	–	> 100	–
O=C1COc2cccnc2N1CCCCO	> 100	> 100	> 100	> 100	> 100	> 100	> 100	–	> 100	> 100	> 100
CN=C(n1ccnc1)n1ccnc1	> 100	> 100	–	–	> 100	> 100	> 100	> 100	> 100	> 100	> 100
O=C(Nc1ccccc1)c1cc(S(=O)(=O)NC2=NC(c3ccccc3)c3cc(Cl)ccc3N2)c(SSc2cc(Cl)c(C(=O)Nc3ccccc3)cc2S(=O)(=O)NC2=NC(c3ccccc3)c3cc(Cl)ccc3N2)cc1Cl (stereo unspecified)	–	> 100	> 100	> 100	> 100	> 100	> 58.3	> 100	> 100	> 100	–
COC(=O)C(CC(C)C)NC(=O)C(C)NC(=O)C(Cc1ccc(OCc2ccccc2)cc1)NC(=O)C(COCc1ccccc1)NC(=O)OC(C)(C)C (stereo unspecified) (Boc-S(Bn)Y(Bn)AL-OMe; configuration not given here)	–	> 100	> 100	> 100	> 100	> 100	> 100	> 100	> 100	–	–
O=C1c2ccccc2C(=O)c2c(NCC(O)CO)ccc(NCC(O)CO)c21 (stereo unspecified)	> 100	> 100	> 100	–	> 100	> 100	> 100	> 100	> 100	> 100	> 100
Cc1ccc(-n2cnc(C(=N)C#N)c2N)cc1	> 100	> 100	> 100	–	> 100	> 100	> 100	> 100	> 100	> 100	> 100
